Results: the NIST ThermoML archive (doi:10.1016/j.jct.2008.06.001)

Columns and labels:
[1] = 101.33 kPa, Liquid; for speed of sound: Sing-around technique in a fixed-path interferometer
[2] = xn = mol fraction of the nth substance listed; details: 101 kPa, Liquid

CCCCCCCCO [octan-1-ol]
[1]
Details	mass density [kg/m3]	speed of sound [m/s]
293.15 K	825.183	1364.3
298.15 K	821.732	1347.1
303.15 K	818.248	1330.2

CCCCCCCCCCO [decan-1-ol]
[1]
Details	mass density [kg/m3]	speed of sound [m/s]
293.15 K	829.601	1396.2
298.15 K	826.198	1378.9
303.15 K	822.767	1361.7

CCCCCCCO [heptan-1-ol]
[1]
Details	mass density [kg/m3]	speed of sound [m/s]
293.15 K	822.398	1344
298.15 K	818.894	1326.7
303.15 K	815.357	1309.9

CCCCCCCCCCO [decan-1-ol] + CCCCOCCCC
[2]
Details	mass density [kg/m3]
293.15 K, x1 = 0.1021	776.363
293.15 K, x1 = 0.1496	779.787
293.15 K, x1 = 0.1993	783.289
293.15 K, x1 = 0.25	786.71
293.15 K, x1 = 0.2996	789.984
293.15 K, x1 = 0.3412	792.683
293.15 K, x1 = 0.3978	796.258
293.15 K, x1 = 0.4468	799.27
293.15 K, x1 = 0.4978	802.397
293.15 K, x1 = 0.5495	805.461
293.15 K, x1 = 0.6009	808.42
293.15 K, x1 = 0.65	811.195
293.15 K, x1 = 0.6993	813.929
293.15 K, x1 = 0.7464	816.506
293.15 K, x1 = 0.7946	819.104
293.15 K, x1 = 0.8488	821.951
293.15 K, x1 = 0.9004	824.616
293.15 K, x1 = 0.95	827.118
298.15 K, x1 = 0.0516	768.307
298.15 K, x1 = 0.1006	772.051
298.15 K, x1 = 0.1498	775.68
298.15 K, x1 = 0.2012	779.315
298.15 K, x1 = 0.2522	782.834
298.15 K, x1 = 0.2996	786.011
298.15 K, x1 = 0.35	789.331
298.15 K, x1 = 0.3994	792.479
298.15 K, x1 = 0.4479	795.536
298.15 K, x1 = 0.4981	798.656
298.15 K, x1 = 0.5512	801.843
298.15 K, x1 = 0.5993	804.66
298.15 K, x1 = 0.6492	807.539
298.15 K, x1 = 0.6995	810.378
298.15 K, x1 = 0.7501	813.185
298.15 K, x1 = 0.7981	815.763
298.15 K, x1 = 0.8498	818.511
298.15 K, x1 = 0.9001	821.147
298.15 K, x1 = 0.9498	823.681
303.15 K, x1 = 0.0509	763.957
303.15 K, x1 = 0.1009	767.841
303.15 K, x1 = 0.1503	771.536
303.15 K, x1 = 0.1994	775.085
303.15 K, x1 = 0.25	778.691
303.15 K, x1 = 0.2996	782.028
303.15 K, x1 = 0.3498	785.36
303.15 K, x1 = 0.3992	788.589
303.15 K, x1 = 0.4451	791.54
303.15 K, x1 = 0.4944	794.601
303.15 K, x1 = 0.5509	798.05
303.15 K, x1 = 0.5921	800.526
303.15 K, x1 = 0.6514	803.989
303.15 K, x1 = 0.6896	806.226
303.15 K, x1 = 0.7493	809.528
303.15 K, x1 = 0.7963	812.111
303.15 K, x1 = 0.8475	814.866
303.15 K, x1 = 0.899	817.595
303.15 K, x1 = 0.9474	820.099

CCCCCCCO [heptan-1-ol] + CCCCOCCCC
[2]
Details	mass density [kg/m3]
293.15 K, x1 = 0.1017	773.953
293.15 K, x1 = 0.1519	776.565
293.15 K, x1 = 0.1998	779.042
293.15 K, x1 = 0.2503	781.671
293.15 K, x1 = 0.3495	786.842
293.15 K, x1 = 0.4019	789.598
293.15 K, x1 = 0.4529	792.309
293.15 K, x1 = 0.5013	794.907
293.15 K, x1 = 0.548	797.412
293.15 K, x1 = 0.6032	800.39
293.15 K, x1 = 0.6486	802.884
293.15 K, x1 = 0.7001	805.686
293.15 K, x1 = 0.7515	808.582
293.15 K, x1 = 0.7771	809.94
293.15 K, x1 = 0.8009	811.278
293.15 K, x1 = 0.8982	816.689
293.15 K, x1 = 0.947	819.42
298.15 K, x1 = 0.0513	767.002
298.15 K, x1 = 0.0991	769.571
298.15 K, x1 = 0.1526	772.412
298.15 K, x1 = 0.2019	775.005
298.15 K, x1 = 0.2506	777.565
298.15 K, x1 = 0.3033	780.366
298.15 K, x1 = 0.3498	782.806
298.15 K, x1 = 0.4	785.5
298.15 K, x1 = 0.4523	788.317
298.15 K, x1 = 0.4995	790.883
298.15 K, x1 = 0.5491	793.589
298.15 K, x1 = 0.6026	796.53
298.15 K, x1 = 0.6503	799.167
298.15 K, x1 = 0.6985	801.859
298.15 K, x1 = 0.7533	804.902
298.15 K, x1 = 0.8005	807.562
298.15 K, x1 = 0.8485	810.291
298.15 K, x1 = 0.8994	813.176
298.15 K, x1 = 0.9439	815.703
303.15 K, x1 = 0.0548	762.859
303.15 K, x1 = 0.1037	765.526
303.15 K, x1 = 0.1537	768.203
303.15 K, x1 = 0.2034	770.861
303.15 K, x1 = 0.2496	773.336
303.15 K, x1 = 0.3003	776.062
303.15 K, x1 = 0.3482	778.634
303.15 K, x1 = 0.3977	781.333
303.15 K, x1 = 0.4501	784.185
303.15 K, x1 = 0.4938	786.627
303.15 K, x1 = 0.5487	789.635
303.15 K, x1 = 0.6009	792.536
303.15 K, x1 = 0.6508	795.355
303.15 K, x1 = 0.6994	798.099
303.15 K, x1 = 0.7519	801.07
303.15 K, x1 = 0.8005	803.865
303.15 K, x1 = 0.851	806.755
303.15 K, x1 = 0.8994	809.543
303.15 K, x1 = 0.946	812.239
